From patent US12390446B2 (RESEARCH TRIANGLE INSTITUTE, priority 2017, dated 2025)
Values after ≈ are worked out from the molar mass of the structure shown. Values joined by “and” are separate entries in the source; they are usually repeats but may differ in a detail not shown here. Identical values can stand only once. “Also recorded” adds a separate entry of the source. Like-named read-outs stand apart in the source and are kept apart here.

Columns and labels:
[1] = target: T1, NPFF2 receptor (human NPFFR2 in CHO-RD-HGA16 cells) (Homo sapiens, UniProt Q9Y5X5); assay: Calcium mobilization functional Ke assay, NPFF2; format: cell-based
T1 construct: expressed in transfected cells

[2] = target: T2, NPFF1 receptor (human NPFFR1 in CHO-RD-HGA16 cells) (Homo sapiens, UniProt Q9GZQ6); assay: Calcium mobilization functional Ke assay, NPFF1; format: cell-based; conditions: for preference / selectivity for NPFF1 over NPFF2: from calcium mobilization Ke values
T2 construct: expressed in transfected cells

[3] = target: NPFF1 receptor (human NPFFR1-CHO cells) (Homo sapiens, UniProt Q9GZQ6); assay: Lance cAMP functional Ke assay, NPFF1; format: cell-based; conditions: for Kb: Table 5
Method: (§1) Kinetic solubility and bidirectional MDCK-MDR1 permeability assays of the compounds were performed by Paraza Pharma Inc. (Montreal, Canada) according to their standard protocols.
(§2) cAMP assay. Stable human NPFFR1-CHO (ES-491-C) and NPFFR2-CHO (ES-490-C) cell lines were purchased from PerkinElmer and used with the Lance@ Ultra kit (TRF0262) to detect cAMP accumulation in low volume 96-well plates. Stimulation buffer containing 1× HBSS, 5 mM HEPES, 0.1% BSA stabilizer, and 0.5 mM IBMX was prepared and titrated to 7.4 at room temperature.
(§3) A single concentration of each test compound was prepared at 4× the desired final concentration in 2% DMSO/stimulation buffer and 5 μL was added to the assay plate.
(§4) Cells were lifted with versene and spun at 270 g for 10 minutes. The cell pellet was resuspended in stimulation buffer and 4,000 cells (10 μL) were added to each well. After incubating for 30 min at RT, Eu-cAMP tracer and uLIGHT-anti-cAMP working solutions were added per the manufacturer's instructions. After incubation at RT for 1 hour, the TR-FRET signal (ex 337 nm) was read on a CLARIOstar multimode plate reader (BMG Biotech, Cary NC).
(§5) Fluorescence values at 665 nm were plotted against the log of compound concentration using a nonlinear regression analysis to generate EC50 values (GraphPad Prism, GraphPad Software, Inc., San Diego CA). Ke values were calculated using the same equation as described in the calcium mobilization methods.

[4] = target: NPFF2 receptor (human NPFFR2-CHO cells) (Homo sapiens, UniProt Q9Y5X5); assay: Lance cAMP functional Ke assay, NPFF2; format: cell-based; conditions: for Kb: Table 5
Method: as §1, §2, §3, §4, §5

[5] = target: T3, NPFF2 receptor (CHO-hNPFFR2 membranes) (Homo sapiens, UniProt Q9Y5X5); assay: Radioligand binding assay, [125I]NPFF, NPFF2
T3 construct: purchased PerkinElmer RBHNF2M400UA; host or cells: CHO cell membranes
Method: (§6) Radioligand binding assay. Binding assays were performed according to PerkinElmer's protocol in a final volume of 500 μL of assay buffer (50 mM Tris-HCl, 1 mM MgCl2, 60 mM NaCl, 0.5% BSA, pH 7.4). […] After incubating at 27° C. for 120 minutes, the binding assay was terminated by vacuum filtration onto Unifilter GF/C glass-fiber filters (pre-soaked in 0.1% PEI) using a Brandel (Gaithersburg, MD, USA) 96-well harvester, followed by three washes with ice-cold wash buffer (50 mM Tris-HCl, 0.1% BSA, pH 7.4). The filter plate was dried for 1 hr at 55° C. Microscint 20 (50 μL) was added to each well and filter-bound radioactivity was counted on a Packard TopCount NXT microplate scintillation and luminescence counter.
(§7) Data were fit to a one site (fit Ki) competitive binding model, log EC50=log(10^log Ki*(1+RadioligandNM/HotKdNM)), to generate Ki values for the test compounds using GraphPad Prism (GraphPad Software, Inc., San Diego CA).

[6] = target: T4, NPFF1 receptor (CHO-hNPFFR1 membranes) (Homo sapiens, UniProt Q9GZQ6); assay: Radioligand binding assay, [125I]NPFF, NPFF1
T4 construct: purchased PerkinElmer RBHNF1M400UA; host or cells: CHO cell membranes
Method: as §6, §7

Sprague-Dawley rats = assay: Fentanyl-induced hyperalgesia model in rats (von Frey paw withdrawal threshold); format: in vivo, rat; conditions: day 1 after fentanyl, i.p., cumulative doses 3.2-32 mg/kg
Kinetic solubility assay = format: physicochemical
Method: as §1
Kinetic solubility assay. A 10 μL of test compound stock solution (10 mM DMSO) was combined with 490 μL of PBS (potassium phosphate monobasic 1 mM, sodium phosphate dibasic 3 mM and sodium chloride 155 mM buffer). The solution was agitated on a VX-2500 multi-tube vortexer (VWR) for 2 hours at room temperature. Following agitation, the sample was filtrated on a glass-fiber filter (1 μm) and the eluate was diluted 200-fold with a mixture of acetonitrile: water (1:1). On each experimental occasion, nicardipine and imipramine were assessed as reference compounds for low and high solubility, respectively. All samples were assessed in triplicate and analyzed by LC-MS/MS using electrospray ionization against standards prepared in the same matrix.

P-gp (MDR1) = assay: Bidirectional MDCK-MDR1 permeability assay; format: in vitro ADME; conditions: dog, MDCK-MDR1, pH 7.4; read-out: efflux ratio (PB→A/PA→B)
Method: as §1
(§8) Bidirectional MDCK-MDR1 permeability assay. MDCK-mdr1 cells at passage 5 were seeded onto permeable polycarbonate supports in 12-well Costar@ Transwell® plates and allowed to grow and differentiate for 3 days. On day 3, culture medium (DMEM supplemented with 10% FBS) was removed from both sides of the transwell inserts and cells were rinsed with warm HBSS. After the rinse step, the chambers were filled with warm transport buffer (HBSS containing 10 mM HEPES, 0.25% BSA, pH 7.4) and the plates were incubated at 37° C. for 30 min prior to TEER (Trans Epithelial Electric Resistance) measurements.
(§9) The buffer in the donor chamber (apical side for A-to-B assay, basolateral side for B-to-A assay) was removed and replaced with the working solution (10 μM test article in transport buffer). The plates were then placed at 37° C. under light agitation. At designated time points (30, 60 and 90 min), an aliquot of transport buffer from the receiver chamber was removed and replenished with fresh transport buffer. Samples were quenched with ice-cold ACN containing internal standard and then centrifuged to pellet protein. Resulting supernatants are further diluted with 50/50 ACN/H2O(H2O only for Atenolol) and submitted for LC-MS/MS analysis. Reported apparent permeability (Papp) values were calculated from single determination. Atenolol and propranolol were tested as low and […] permeability references.
(§10) The apparent permeability (Papp, measured in cm/s) of a compound is determined according to the following formula:
(§11) [formula] • dQ/dt is the net rate of appearance in the receiver compartment • A is the area of the Transwell measured in cm^2 (1.12 cm^2) • Ci is the initial concentration of compound added to the donor chamber • 60 is the conversion factor for minutes to seconds. In Vivo Pharmacology.

MDCK-MDR1 cells = assay: Bidirectional MDCK-MDR1 permeability assay; format: in vitro ADME; conditions: for BBB permeability / rate B to A / rate apical (A) to basolateral (B): MDCK-MDR1; for Pgp substrate: from efflux ratio
Method: as §1, §8, §9, §10, §11

[7] = Table 3, mean ± SEM, read-out: NPFF2 Ke
[8] = Table 3, mean ± SEM, read-out: NPFF1 Ke
[9] = Table 5, [125I]NPFF displacement
[10] = Table 1, mean ± SEM, apparent dissociation constant vs NPFF, read-out: NPFF1 Ke
[11] = calcium mobilization assay, read-out: NPFF1 Ke
[12] = Table 6, MDCK-MDR1, 10 μM test article

T1 sequence (Q9Y5X5 whole entry): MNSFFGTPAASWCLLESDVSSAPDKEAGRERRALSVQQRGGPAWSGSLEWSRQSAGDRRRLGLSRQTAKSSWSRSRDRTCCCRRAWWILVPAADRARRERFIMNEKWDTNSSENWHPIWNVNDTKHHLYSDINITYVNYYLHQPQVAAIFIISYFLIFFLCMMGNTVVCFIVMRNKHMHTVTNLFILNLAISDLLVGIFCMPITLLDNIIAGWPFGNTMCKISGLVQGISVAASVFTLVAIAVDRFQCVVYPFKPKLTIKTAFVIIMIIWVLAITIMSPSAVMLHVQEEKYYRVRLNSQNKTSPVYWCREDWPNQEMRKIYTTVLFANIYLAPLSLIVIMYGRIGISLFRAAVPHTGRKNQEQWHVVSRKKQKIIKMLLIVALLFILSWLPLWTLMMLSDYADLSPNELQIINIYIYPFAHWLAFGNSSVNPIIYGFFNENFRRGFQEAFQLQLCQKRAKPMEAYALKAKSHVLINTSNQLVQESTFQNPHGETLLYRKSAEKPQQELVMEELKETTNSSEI
T3 sequence (Q9Y5X5 whole entry): as above
Chain of NPFF2 receptor (human NPFFR2-CHO cells) (Q9Y5X5 whole entry): as above
T2 sequence (Q9GZQ6 whole entry): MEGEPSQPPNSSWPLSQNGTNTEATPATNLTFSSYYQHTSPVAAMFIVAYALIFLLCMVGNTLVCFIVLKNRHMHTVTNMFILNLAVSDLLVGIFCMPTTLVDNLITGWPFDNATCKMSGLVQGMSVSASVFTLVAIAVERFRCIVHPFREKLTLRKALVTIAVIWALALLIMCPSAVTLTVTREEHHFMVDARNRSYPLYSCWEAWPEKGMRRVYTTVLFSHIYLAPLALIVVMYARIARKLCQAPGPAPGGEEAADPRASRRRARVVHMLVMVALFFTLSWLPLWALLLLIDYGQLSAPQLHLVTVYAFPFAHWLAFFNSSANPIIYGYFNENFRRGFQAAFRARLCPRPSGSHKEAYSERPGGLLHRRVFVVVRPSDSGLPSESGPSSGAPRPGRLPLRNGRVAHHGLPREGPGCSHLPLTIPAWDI
Chain of NPFF1 receptor (human NPFFR1-CHO cells) (Q9GZQ6 whole entry): as above
T4 sequence (Q9GZQ6 whole entry): as above

O=C(NCCc1ccc([N+](=O)[O-])cc1)[C@@H]1C[C@H](NCc2ccc(Cl)cc2)CN1Cc1ccccc1Cl [Compound 63, (2S,4S)-1-[(2-Chlorophenyl)methyl]-4-{[(4-chlorophenyl)methyl]amino}-N-[2-(4-nitrophenyl)ethyl]pyrrolidine-2-carboxamide]
Kb [1, 7]: 1860 nM | Kb [2, 8]: 680 ± 180 nM | Kb ([2]; Table 5, read-out: Calcium mobilization assay Ke NPFF1): 510 ± 180 nM | Kb [3]: 1550 nM | Kb [4]: 1760 nM

COc1ccc(CCNC(=O)[C@@H]2C[C@H](NCc3ccc(OC)cc3)CN2Cc2ccccc2Cl)cc1 [Compound 26, (2S,4S)-1-[(2-Chlorophenyl)methyl]-N-[2-(4-methoxyphenyl)ethyl]-4-{[(4-methoxyphenyl)methyl]amino}pyrrolidine-2-carboxamide]
Ki [5, 9]: 1460 nM | Ki [6, 9]: 920 ± 30 nM | Kb ([1]; Table 1, footnote c: pre-incubation of antagonist and test compound 45 min or 1 hr, read-out: NPFF2 Ke): 1750 nM | Kb [2, 10]: 670 ± 60 nM | Kb [2, 11]: 670 nM | Kb ([3]; footnote c: pre-incubation of antagonist and receptor 1 hour): 570 ± 150 nM | Kb [4]: 2560 nM

COc1ccc(CN[C@H]2C[C@@H](C(=O)NCCc3ccc([N+](=O)[O-])cc3)N(Cc3ccccc3Cl)C2)cc1 [Compound 33]
effect on PWT (Sprague-Dawley rats): dose-dependently increased PWT | Ki [5]: 1670 nM | solubility (Kinetic solubility assay): moderate | Ki [6]: 610 ± 30 nM | efflux ratio at 90 min, 10 μM (P-gp (MDR1)): 1.3 | BBB permeability (MDCK-MDR1 cells): moderate | rate B to A (MDCK-MDR1 cells): 3.6e-06 cm/s | rate apical (A) to basolateral (B) (MDCK-MDR1 cells): 2.7e-06 cm/s | Pgp substrate (MDCK-MDR1 cells): not Pgp substrates; also recorded: not a Pgp substrate | Hill slope of NPFF + compound curve, calcium mobilization, NPFF2 cells [1]: 1.4 | Hill slope of NPFF + compound curve, calcium mobilization, NPFF1 cells [2]: 1.4 | Kb [2, 11]: 245 nM and 250 nM | preference / selectivity for NPFF1 over NPFF2 [2]: ~3 fold | type of antagonism in curve-shift assays ([2]; standard incubation, competitive profile with longer incubations): insurmountable antagonism | Hill slope of NPFF + compound curve, cAMP assay, NPFF1 cells [3]: 1.4 | Hill slope of NPFF + compound curve, cAMP assay, NPFF2 cells [4]: 1

CCCCCNC(=O)[C@@H]1C[C@H](NCc2ccc(OC)cc2)CN1Cc1ccccc1Cl [Compound 16, (2S,4S)-1-[(2-Chlorophenyl)methyl]-4-{[(4-methoxyphenyl)methyl]amino}-N-pentylpyrrolidine-2-carboxamide]
effect on PWT (Sprague-Dawley rats): dose-dependently increased PWT | Ki [5, 9]: 1440 nM | solubility (Kinetic solubility assay): good and moderate | kinetic solubility (Kinetic solubility assay; Mean±% CV, free base): 146.8 ± 6.9 µM (≈ 65.2 µg/mL) | solubility (Kinetic solubility assay; Table 6, kinetic solubility in PBS, free base, Mean ± % CV): 146.8 ± 6.9 µM (≈ 65.2 µg/mL) | Ki [6, 9]: 890 ± 50 nM | BBB permeability (MDCK-MDR1 cells): moderate | rate B to A (MDCK-MDR1 cells): 6.7e-06 cm/s | rate apical (A) to basolateral (B) (MDCK-MDR1 cells): 7.6e-06 cm/s | Papp A-to-B (MDCK-MDR1 cells; [12]): 7.6 10^−6 cm/sec | Papp B-to-A (MDCK-MDR1 cells; [12]): 6.7 10^−6 cm/sec | Efflux ratio (MDCK-MDR1 cells; Table 6, PB→A/PA→B): 0.9 | Pgp substrate (MDCK-MDR1 cells): not Pgp substrates | Hill slope of NPFF + compound curve, calcium mobilization, NPFF2 cells [1]: 1.1 | Kb ([1]; Table 1, mean ± SEM, apparent dissociation constant vs NPFF, read-out: NPFF2 Ke): 3090 nM | NPFF2 Ke ([1]; calcium mobilization assay): 3,090 nM | Hill slope of NPFF + compound curve, calcium mobilization, NPFF1 cells [2]: 1.7 | Kb [2, 10]: 720 ± 10 nM | Kb [2, 11]: 720 nM | preference / selectivity for NPFF1 over NPFF2 [2]: > 4 fold | Hill slope of NPFF + compound curve, cAMP assay, NPFF1 cells [3]: 1.3 | Kb [3]: 340 ± 80 nM | Hill slope of NPFF + compound curve, cAMP assay, NPFF2 cells [4]: 1.3 | Kb [4]: 2150 nM

O=C(NCCc1ccc([N+](=O)[O-])cc1)[C@@H]1C[C@H](NCc2ccc(F)cc2)CN1Cc1ccccc1Cl [Compound 64, (2S,4S)-1-[(2-Chlorophenyl)methyl]-4-{[(4-fluorophenyl)methyl]amino}-N-[2-(4-nitrophenyl)ethyl]pyrrolidine-2-carboxamide]
Kb [1, 7]: > 10000 nM | Kb ([1]; Table 5, read-out: Calcium mobilization assay Ke NPFF2): > 10000 nM | Kb [2, 8]: 960 ± 690 nM | preference / selectivity for NPFF1 over NPFF2 [2]: more than 10 fold | Kb [3]: 1440 nM | Kb [4]: 960 nM

COc1ccc(CN[C@H]2C[C@@H](C(=O)NCCc3ccc(F)c(F)c3)N(Cc3ccccc3Cl)C2)cc1 [Compound 34, (2S,4S)-1-[(2-Chlorophenyl)methyl]-N-[2-(3,4-difluorophenyl)ethyl]-4-{[(4-methoxyphenyl)methyl]amino}pyrrolidine-2-carboxamide]
Ki [5, 9]: 1490 nM | Ki [6, 9]: 560 ± 40 nM | Kb [2, 10]: 610 ± 130 nM | Kb [2, 11]: 610 nM | Kb [3]: 570 ± 170 nM | Kb [4]: 2160 nM

COc1ccc(CN[C@H]2C[C@@H](C(=O)NCCc3ccccc3)N(Cc3ccccc3Cl)C2)cc1 [Compound 24, (2S,4S)-1-[(2-Chlorophenyl)methyl]-4-{[(4-methoxyphenyl)methyl]amino}-N-(2-phenylethyl)pyrrolidine-2-carboxamide]
Ki [5, 9]: 1230 nM | Ki [6, 9]: 710 ± 20 nM | Kb ([1]; read-out: Calcium mobilization assay Ke NPFF2): > 10000 nM | Kb ([1]; read-out: NPFF2 Ke): > 10000 nM and 9390 nM | Kb [2, 10]: 850 ± 140 nM | NPFF1 Ke ([2]; Table 4, mean ± SEM): 850 ± 140 nM | Calcium mobilization assay Ke NPFF1 ([2]; Table 5): 850 ± 140 nM | Kb [2, 11]: 850 nM | Kb [3]: 770 ± 120 nM | Kb [4]: 3790 nM
